Measured values published in patent publication US20020174455A1, “Sustained totipotent culture of selected monocot genera” (priority 2001, published 2002).

Legend:
A. donax explants = assay: Phosphinothricin selection of explants with or without Agrobacterium tumefaciens cocultivation (Example 3); format: cell-based, Arundo donax L.; details: 10 mg/l
Procedure: Cross-sectional segment of immature A. donax inflorescence were prepared and cultivated as described in Example 2. The totipotent tissue was cocultivated with Agrobacterium tumefaciens carrying plasmid pMSF3022, which carried the bar gene for positive selection in plant cells. The gene confers resistance to the antibiotic/herbicide phosphinothricin.
Cocultivation was carried out in 6 ml. of liquid primary culture medium for four days in the dark at room temperature. Explants were then rinsed with liquid medium and placed on solid selective and non-selective control medium containing the antibiotic/herbicide phosphinothricine at 10 mg/l. All medium contained tidarcillin at 400 mg/l to eliminate residual A. tumefaciens. Controls includes explants incubated without A. tumefaciens. […] This can be contrasted with control explants (which were not contacted with A. tumefaciens) that were killed by 10 mg/l of phosphinothricin (FIG. 3A). Also shown are control explants that have developed callus in the absence of phosphinothricin (FIG. 3B), and cocultivated explants that have developed callus in the absence of phosphinothricin (FIG. 3D).

[1] = test system: cloned A. donax plants (roots); assay: Trichloroethene challenge of cloned plants in phytoreactor (Example 4); format: in vivo, Arundo donax L.; details: 0.25 mM in hydroponic solution; after a recovery period of 3 to 4 weeks
Procedure: Sustained titopotent cultures of A donax were grown as described in Example 2, and cloned plants derived from the titopotent tissues were established in a standard liquid hydroponic solution in plastic tubs (Shown in FIG. 4 A). In one phytoreactor tub, trichloroethene (trichloroethylene) was added to a concentration of 0.25 mM. This was believed to be a high concentration of the organic material, because the allowable EPA concentration is 0.005 mg/l.

SMILES	effect on control explants (not contacted with A. tumefaciens) (A. donax explants)	state of roots of challenged plants [1]
CP(=O)(O)CC[C@H](N)C(=O)O [phosphinothricin]	killed	–
ClC=C(Cl)Cl [trichloroethene]	–	fully recovered
